Results reported in ChEMBL document CHEMBL1201862, “PubChem BioAssay data set” (2004).
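A five-concentration, 48-hour dose response in 96-well plates underlies each endpoint, interpolated linearly between surrounding concentrations. GI50: concentration for 50% inhibition of growth.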 Active and inactive are the calls of the source. Rule as the data show it: active = GI50 up to about 1.1 µM and inactive = higher.

How the values were obtained:
Assay in all cases: NCI-60 cell line screen, 48 h
[1] = tested on: OVCAR-5
[2] = tested on: SNB-19
[3] = tested on: NCI-H23
[4] = tested on: A549
[5] = tested on: RXF 393
[6] = tested on: SF-295
[7] = tested on: OVCAR-4
[8] = tested on: EKVX
[9] = tested on: MOLT-4
[10] = tested on: SK-MEL-2
[11] = tested on: NCI-H522
[12] = tested on: UACC-257
[13] = tested on: UO-31
[14] = tested on: HCC 2998
[15] = tested on: HCT-116
[16] = tested on: DU-145
[17] = tested on: PC-3
[18] = tested on: MDA-MB-231
[19] = tested on: Hs-578T
[20] = tested on: T47D

SMILES | GI50 [1] | GI50 [2] | GI50 [3] | GI50 [4] | GI50 [5] | GI50 [6] | GI50 [7] | GI50 [8] | GI50 [9] | GI50 [10] | GI50 [11] | GI50 [12] | GI50 [13] | GI50 [14] | GI50 [15] | GI50 [16] | GI50 [17] | GI50 [18] | GI50 [19] | GI50 [20]
CCOc1ccccc1NC(=O)C(=O)CC(=O)C1=C(C)Nc2ccccc2S1 | > 100 µM (inactive) | > 100 µM (inactive) | > 100 µM (inactive) | > 100 µM (inactive) | > 100 µM (inactive) | > 100 µM (inactive) | > 100 µM (inactive) | > 100 µM (inactive) | > 49.7 µM (inactive) | > 100 µM (inactive) | > 100 µM (inactive) | > 100 µM (inactive) | > 93.3 µM (inactive) | > 100 µM (inactive) | > 100 µM (inactive) |  |  |  |  | 
CN(NC(=O)/C(=C\c1ccco1)NC(=O)c1ccccc1)c1cn[nH]c(=O)c1Cl | > 100 µM (inactive) | 97.9 µM (inactive) | > 100 µM (inactive) | > 100 µM (inactive) | > 100 µM (inactive) | 64.4 µM (inactive) | > 100 µM (inactive) | > 100 µM (inactive) | 29.6 µM (inactive) | 80.5 µM (inactive) | 28.1 µM (inactive) | 48.8 µM (inactive) | > 100 µM (inactive) |  | 51.5 µM (inactive) | > 100 µM (inactive) | > 100 µM (inactive) | > 100 µM (inactive) | 52.1 µM (inactive) | 
CN(C)C(=S)N=C(Nc1ccccc1)Nc1ccccc1 | > 100 µM (inactive) | > 100 µM (inactive) | > 100 µM (inactive) | > 100 µM (inactive) | > 100 µM (inactive) | > 100 µM (inactive) | > 100 µM (inactive) | > 100 µM (inactive) | > 100 µM (inactive) | > 100 µM (inactive) | > 100 µM (inactive) | > 100 µM (inactive) | > 100 µM (inactive) | > 100 µM (inactive) | > 100 µM (inactive) |  |  |  |  | 
O=C(O)C(Br)C(Br)C(=O)O (configuration not stated) | > 100 µM (inactive) | > 100 µM (inactive) | > 100 µM (inactive) | > 100 µM (inactive) | > 100 µM (inactive) | > 100 µM (inactive) | > 100 µM (inactive) | > 100 µM (inactive) |  | > 100 µM (inactive) | > 100 µM (inactive) | > 100 µM (inactive) | > 100 µM (inactive) | > 100 µM (inactive) | > 100 µM (inactive) | > 100 µM (inactive) | > 100 µM (inactive) | > 100 µM (inactive) | > 100 µM (inactive) | 
COc1ccc(C(=O)O)c(Cc2cccc3ccccc23)c1 | > 100 µM (inactive) | > 100 µM (inactive) | > 100 µM (inactive) | > 100 µM (inactive) | > 100 µM (inactive) | > 100 µM (inactive) | > 100 µM (inactive) | > 100 µM (inactive) | > 100 µM (inactive) | > 100 µM (inactive) | > 100 µM (inactive) | > 100 µM (inactive) | > 100 µM (inactive) | > 100 µM (inactive) | > 100 µM (inactive) |  |  |  |  | 
CC1/C(=N\O)CC(c2ccccc2)N(C)C1c1ccccc1 (configuration not stated) | > 100 µM (inactive) | > 100 µM (inactive) | > 100 µM (inactive) | > 100 µM (inactive) | > 100 µM (inactive) | > 100 µM (inactive) | > 100 µM (inactive) | > 100 µM (inactive) | > 100 µM (inactive) | > 100 µM (inactive) | > 100 µM (inactive) | > 100 µM (inactive) | > 100 µM (inactive) | > 100 µM (inactive) | > 100 µM (inactive) |  |  |  |  | 
Cc1cccc(N/C(Sc2ccccc2)=C(/C(Cl)=C(Cl)Cl)[N+](=O)[O-])c1 | 15.1 µM (inactive) | 28.7 µM (inactive) | 20.1 µM (inactive) | 20 µM (inactive) |  | 17.1 µM (inactive) | 17.5 µM (inactive) | 16.9 µM (inactive) | 21.5 µM (inactive) | 28.1 µM (inactive) |  | 20.8 µM (inactive) | 14.7 µM (inactive) | 39.4 µM (inactive) | 15.3 µM (inactive) | 20.5 µM (inactive) | 27 µM (inactive) | 20.4 µM (inactive) |  | 18 µM (inactive)
CC(=O)[O-].[Zn+].c1ccc(/C(=N\Nc2ccccn2)c2ccccn2)cc1 | 0.025 µM (active) | 1.06 µM (active) | 0.0155 µM (active) | 0.344 µM (active) | 0.3 µM (active) | 0.348 µM (active) | 0.603 µM (active) | 0.00629 µM (active) | 0.000773 µM (active) | 1.33 µM (inactive) | 0.165 µM (active) | 0.08 µM (active) | 0.253 µM (active) | 0.71 µM (active) | 0.005 µM (active) | 0.458 µM (active) | 0.03 µM (active) |  | 0.931 µM (active) | 0.00206 µM (active)
